Like-named read-outs stand apart in the source and are kept apart here.
What was measured:
[1] = biological target: human Factor XIa (Homo sapiens (Human), UniProt P03951); assay: Factor XIa Assay; format: biochemical; settings: read-out: FXIa Ki
Method in brief: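 Ki derived from the dependence of Vo/Vi on inhibitor concentration under a competitive-inhibition model, after pre-equilibration of enzyme and inhibitor. Reaction: 40 pM human FXIa, 100 μM Z-Gly-Pro-Arg-AFC, HEPES 50 mM pH 7.4 with NaCl, CaCl2 and PEG 8000; run at room temperature or 37° C.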

[2] = biological target: Human plasma kallikrein (Homo sapiens (Human), UniProt P03952); assay: Kallikrein Assay; format: biochemical; settings: purified Human plasma kallikrein 0.5 nM, Acetyl-K-P-R-AFC, pH 7.4; Ki from IC50 by Cheng Prusoff
Description: The effectiveness of a compound of the present invention as an inhibitor of Kallikrein can be determined using a relevant purified serine protease, and an appropriate synthetic substrate. The rate of hydrolysis of the chromogenic or fluorogenic substrate by the relevant serine protease was measured both in the absence and presence of compounds of the present invention. Assays were conducted at room temperature or at 37° C. […] A decrease in the rate of fluorescence change in the presence of inhibitor is indicative of enzyme inhibition. Such methods are known to one skilled in the art. The results of this assay are expressed as the inhibitory constant, Ki.
Kallikrein determinations were made in 50 mM HEPES buffer at pH 7.4 containing 150 mM NaCl, 5 mM CaCl2, and 0.1% PEG 8000 (polyethylene glycol; Fisher Scientific). Determinations were made using purified Human plasma kallikrein at a final concentration of 0.5 nM (Enzyme Research Laboratories) and the synthetic substrate, Acetyl-K-P-R-AFC (Sigma #C6608) at a concentration of […].
Times required to achieve equilibration between enzyme and inhibitor were determined in control experiments. The reactions were performed under linear progress curve conditions and fluorescence increase measured at 405 Ex/510 Em nm. […] IC50 was determined by inflection point from a four parameter logistic curve fit. Ki was calculated using the Cheng Prusoff equation, Ki=IC50/(1+([S]/Km)).

[3] = purified human Factor XIa 40 pM, Z-Gly-Pro-Arg-AFC 100 μM, pH 7.4

Human plasma kallikrein, sequence (P03952 391-638): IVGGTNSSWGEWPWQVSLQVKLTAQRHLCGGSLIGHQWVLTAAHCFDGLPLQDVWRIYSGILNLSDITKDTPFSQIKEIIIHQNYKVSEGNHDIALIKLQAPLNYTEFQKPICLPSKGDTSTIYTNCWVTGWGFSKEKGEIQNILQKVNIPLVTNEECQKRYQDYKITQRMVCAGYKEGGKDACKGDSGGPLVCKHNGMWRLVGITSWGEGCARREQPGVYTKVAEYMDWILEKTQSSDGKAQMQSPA
Human plasma kallikrein, sequence (P03952 20-390 partner): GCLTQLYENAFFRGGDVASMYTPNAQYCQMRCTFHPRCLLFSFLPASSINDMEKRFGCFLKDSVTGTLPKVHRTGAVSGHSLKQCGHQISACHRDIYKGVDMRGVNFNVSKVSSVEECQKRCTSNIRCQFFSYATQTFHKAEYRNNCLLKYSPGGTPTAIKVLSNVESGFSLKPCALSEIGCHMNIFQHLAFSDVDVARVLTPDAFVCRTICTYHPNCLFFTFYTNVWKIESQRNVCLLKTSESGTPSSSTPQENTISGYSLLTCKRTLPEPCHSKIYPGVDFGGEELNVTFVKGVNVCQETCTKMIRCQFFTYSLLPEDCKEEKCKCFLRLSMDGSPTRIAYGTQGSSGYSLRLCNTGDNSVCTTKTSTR
human Factor XIa, sequence (P03951 388-625): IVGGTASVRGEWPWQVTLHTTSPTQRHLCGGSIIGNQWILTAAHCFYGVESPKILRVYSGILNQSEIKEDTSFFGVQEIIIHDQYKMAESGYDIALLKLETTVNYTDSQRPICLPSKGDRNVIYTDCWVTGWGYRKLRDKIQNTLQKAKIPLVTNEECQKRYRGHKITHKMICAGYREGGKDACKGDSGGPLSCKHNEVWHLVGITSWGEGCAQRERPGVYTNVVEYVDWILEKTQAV
human Factor XIa, sequence (P03951 19-387 partner): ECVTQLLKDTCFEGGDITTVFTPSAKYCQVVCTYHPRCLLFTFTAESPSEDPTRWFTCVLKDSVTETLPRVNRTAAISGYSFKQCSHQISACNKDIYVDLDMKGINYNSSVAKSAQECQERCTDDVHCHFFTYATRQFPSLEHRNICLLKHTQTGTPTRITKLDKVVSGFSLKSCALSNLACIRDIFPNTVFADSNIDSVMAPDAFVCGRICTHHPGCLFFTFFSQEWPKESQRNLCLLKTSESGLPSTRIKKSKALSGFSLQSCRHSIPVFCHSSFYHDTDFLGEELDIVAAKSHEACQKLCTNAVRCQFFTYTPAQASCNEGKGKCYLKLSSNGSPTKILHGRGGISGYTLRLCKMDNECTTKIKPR

SMILES | Ki [1] | Ki [2] | Ki [1, 3]
O=C1Nc2ccc(Cl)cc2[C@@]2(CCN(C(=O)[C@H](Cc3ccccc3)NC(=O)c3ccc4[nH]c(=O)c(=O)[nH]c4c3)C2)O1 [Example 198] | 2.77 nM | 30.1 nM | 
COC(=O)Nc1ccc(C(=O)N[C@@H](Cc2ccccc2)C(=O)N2CC[C@@]3(C2)OC(=O)Nc2ccc(C)cc23)cc1 [Example 14b, methyl (4-(((S)-1-((R)-6-methyl-2-oxo-1,2-dihydrospiro[benzo[d][1,3]oxazine-4,3′-pyrrolidin]-1′-yl)-1-oxo-3-phenylpropan-2-yl)carbamoyl)phenyl)carbamate] |  | 47.8 nM | 9.5 nM
O=C1Nc2ccc(Cl)cc2C2(CCN(C(=O)[C@H](Cc3ccccc3)NC(=O)c3ccc(Nc4ncc[nH]4)cc3)C2)O1 (stereo partly drawn) [Example 188] | 42 nM | 155 nM | 
COC(=O)Nc1ccc(C(=O)N[C@@H](CC(C)(C)OC)C(=O)N2CCC[C@@]3(C2)OC(=O)Nc2ccc(Cl)c(F)c23)cc1 [Example 119, methyl (4-(((2S)-1-(6-chloro-5-fluoro-2-oxo-1,2-dihydrospiro[benzo[d][1,3]oxazine-4,3′-piperidin]-1′-yl)-4-methoxy-4-methyl-1-oxopentan-2-yl)carbamoyl)phenyl)carbamate] |  | 4.92 nM | 10.2 nM
COC(=O)Nc1ccc(C(=O)N[C@@H](CCc2ccccc2)C(=O)N2CCC3(C2)OC(=O)Nc2ccc(Cl)cc23)cc1 (stereo partly drawn) [Example 52, methyl (4-(((2S)-1-(6-chloro-2-oxo-1,2-dihydrospiro[benzo[d][1,3]oxazine-4,3′-pyrrolidin]-1′-yl)-1-oxo-4-phenylbutan-2-yl)carbamoyl)phenyl)carbamate] |  | 92.8 nM | 17.6 nM
COCC[C@H](NC(=O)c1ccc(NC(=O)OC)cc1)C(=O)N1CCC[C@@]2(C1)OC(=O)Nc1ccc(Cl)cc12 [Example 37, methyl (4-(((S)-1-((R)-6-chloro-2-oxo-1,2-dihydrospiro[benzo[d][1,3]oxazine-4,3′-piperidin]-1′-yl)-4-methoxy-1-oxobutan-2-yl)carbamoyl)phenyl)carbamate] |  | 2.68 nM | 9.21 nM
COC(=O)Nc1ccc(C(=O)N[C@@H](Cc2sccc2F)C(=O)N2CCC3(C2)OC(=O)Nc2ccc(Cl)cc23)cc1 (stereo partly drawn) [Example 43, methyl (4-(((2S)-1-(6-chloro-2-oxo-1,2-dihydrospiro[benzo[d][1,3]oxazine-4,3′-pyrrolidin]-1′-yl)-3-(3-fluorothiophen-2-yl)-1-oxopropan-2-yl)carbamoyl)phenyl)carbamate] |  | 42.5 nM | 17.7 nM
COC(=O)Nc1ccc(C(=O)N[C@@H](Cc2cscn2)C(=O)N2CCC3(C2)OC(=O)Nc2ccc(Cl)cc23)cc1 (stereo partly drawn) [Example 40, methyl (4-(((2S)-1-(6-chloro-2-oxo-1,2-dihydrospiro[benzo[d][1,3]oxazine-4,3′-pyrrolidin]-1′-yl)-1-oxo-3-(thiazol-4-yl)propan-2-yl)carbamoyl)phenyl)carbamate] |  | 116 nM | 52.4 nM
COC(=O)Nc1ccc(C(=O)N[C@@H](Cc2ccsc2)C(=O)N2CCC3(C2)OC(=O)Nc2ccc(Cl)cc23)cc1 (stereo partly drawn) [Example 32, methyl (4-(((2S)-1-(6-chloro-2-oxo-1,2-dihydrospiro[benzo[d][1,3]oxazine-4,3′-pyrrolidin]-1′-yl)-1-oxo-3-(thiophen-3-yl)propan-2-yl)carbamoyl)phenyl)carbamate] |  | 42.2 nM | 16 nM
COC(=O)Nc1ccc(C(=O)N[C@@H](Cc2ccccc2)C(=O)N2CCC[C@]3(C2)OC(=O)Nc2ccc(F)cc23)cc1 [Example 8b, methyl (4-(((S)-1-((S)-6-fluoro-2-oxo-1,2-dihydrospiro[benzo[d][1,3]oxazine-4,3′-piperidin]-1′-yl)-1-oxo-3-phenylpropan-2-yl)carbamoyl)phenyl)carbamate] |  |  | 5000 nM
O=C1Nc2ccc(Cl)cc2[C@@]2(CCN(C(=O)[C@H](Cc3ccccc3)C(=O)Nc3ccc(C(=O)O)cc3)C2)O1 [Example 121c, 4-((R)-2-benzyl-3-((R)-6-chloro-2-oxo-1,2-dihydrospiro[benzo[d][1,3]oxazine-4,3′-pyrrolidin]-1′-yl)-3-oxopropanamido)benzoic acid] |  |  | 439 nM

Results, then the molecule that gave them:

Ki [1] | Ki [2] | Ki [1, 3] | SMILES
 | < 1.3 nM | 0.55 nM | COC(=O)Nc1ccc(C(=O)N[C@@H](Cc2ccc(C(N)=O)cc2)C(=O)N2CCC[C@@]3(C2)OC(=O)Nc2ccc(Cl)cc23)cc1 [Example 47, methyl (4-(((S)-3-(4-carbamoylphenyl)-1-((R)-6-chloro-2-oxo-1,2-dihydrospiro[benzo[d][1,3]oxazine-4,3′-piperidin]-1′-yl)-1-oxopropan-2-yl)carbamoyl)phenyl)carbamate]
 | 1.36 nM | 3.85 nM | COC(=O)Nc1ccc(C(=O)N[C@@H](Cc2ccccc2)C(=O)N2CCC[C@@]3(C2)OC(=O)Nc2ccc(C)c(F)c23)cc1 [Example 16, methyl (4-(((S)-1-((R)-5-fluoro-6-methyl-2-oxo-1,2-dihydrospiro[benzo[d][1,3]oxazine-4,3′-piperidin]-1′-yl)-1-oxo-3-phenylpropan-2-yl)carbamoyl)phenyl)carbamate]
13.8 nM | 2.6 nM |  | O=C1Nc2ccc(Cl)c(F)c2[C@@]2(CCCN(C(=O)[C@H](CC3CC3)NC(=O)c3ccc4c(O)n[nH]c4c3)C2)O1 [Example 215]
 | 1.06 nM |  | COC(=O)Nc1ccc(C(=O)N[C@@H](C[C@@H](C)OC)C(=O)N2CCC[C@@]3(C2)OC(=O)Nc2ccc(Cl)c(F)c23)cc1 [Example 118B, methyl (4-(((2S,4R)-1-((R)-6-chloro-5-fluoro-2-oxo-1,2-dihydrospiro[benzo[d][1,3]oxazine-4,3′-piperidin]-1′-yl)-4-methoxy-1-oxopentan-2-yl)carbamoyl)phenyl)carbamate]
 | < 1.3 nM | 70 nM | COC(=O)Nc1ccc(C(=O)N[C@@H](Cc2ccc(OC3CCCC3)cc2)C(=O)N2CCC3(C2)OC(=O)Nc2ccc(Cl)cc23)cc1 (stereo partly drawn) [Example 44, methyl (4-(((2S)-1-(6-chloro-2-oxo-1,2-dihydrospiro[benzo[d][1,3]oxazine-4,3′-pyrrolidin]-1′-yl)-3-(4-(cyclopentyloxy)phenyl)-1-oxopropan-2-yl)carbamoyl)phenyl)carbamate]
53.9 nM | 2.13 nM |  | COC(=O)NCc1ccc(C(=O)N[C@@H](Cc2ccccc2)C(=O)N2CCC[C@@]3(C2)OC(=O)Nc2ccc(Cl)c(F)c23)cc1 [Example 241, methyl (4-(((S)-1-((R)-6-chloro-5-fluoro-2-oxo-1,2-dihydrospiro[benzo[d][1,3]oxazine-4,3′-piperidin]-1′-yl)-1-oxo-3-phenylpropan-2-yl)carbamoyl)benzyl)carbamate]
2.11 nM | 0.83 nM |  | Nc1n[nH]c2cc(C(=O)N[C@@H](CC3CC3)C(=O)N3CCC[C@@]4(C3)OC(=O)Nc3ccc(Cl)c(F)c34)ccc12 [Example 254]
 | 0.6 nM |  | O=C(Nc1ccc(C(=O)N[C@@H](Cc2cccc(F)c2)C(=O)N2CCC[C@@]3(C2)OC(=O)Nc2ccc(Cl)c(F)c23)cc1)OCCP(=O)(O)O [Example 271, (2-(((4-(((S)-1-((R)-6-chloro-5-fluoro-2-oxo-1,2-dihydrospiro[benzo[d][1,3]oxazine-4,3′-piperidin]-1′-yl)-3-(3-fluorophenyl)-1-oxopropan-2-yl)carbamoyl)phenyl)carbamoyl)oxy)ethyl)phosphonic acid]
0.78 nM | 0.57 nM |  | O=C1Nc2ccc(Cl)c(F)c2[C@@]2(CCCN(C(=O)[C@H](Cc3ccccc3)NC(=O)c3ccc4[nH]c(=O)ccc4c3)C2)O1 [Example 257]
 | 1.8 nM | 7.88 nM | COC(=O)Nc1ccc(C(=O)N[C@@H](CC2CC2(F)F)C(=O)N2CCC[C@@]3(C2)OC(=O)Nc2ccc(Cl)c(F)c23)cc1 (single isomer, unassigned) [Example 67B]
37.6 nM | 1.7 nM |  | O=C1Nc2ccc(Cl)c(F)c2[C@@]2(CCCN(C(=O)[C@H](CC3CC3)NC(=O)c3cc4cc(O)ccc4[nH]3)C2)O1 [Example 216]
 | 1.79 nM |  | COC(=O)Nc1ccc(C(=O)N[C@@H](C[C@H](C)OC)C(=O)N2CCC[C@@]3(C2)OC(=O)Nc2ccc(Cl)c(F)c23)cc1 [Example 118A, methyl (4-(((2S,4S)-1-((R)-6-chloro-5-fluoro-2-oxo-1,2-dihydrospiro[benzo[d][1,3]oxazine-4,3′-piperidin]-1′-yl)-4-methoxy-1-oxopentan-2-yl)carbamoyl)phenyl)carbamate]
 | 0.6 nM |  | COC(=O)Nc1ccc(C(=O)N[C@@H](CC2(OC)CC2)C(=O)N2CCC[C@@]3(C2)OC(=O)Nc2ccc(Cl)c(F)c23)cc1 [Example 115, methyl (4-(((S)-1-((R)-6-chloro-5-fluoro-2-oxo-1,2-dihydrospiro[benzo[d][1,3]oxazine-4,3′-piperidin]-1′-yl)-3-(1-methoxycyclopropyl)-1-oxopropan-2-yl)carbamoyl)phenyl)carbamate]
